Measured values reported in paper PMC7114444 (Virus Research, 2014).
“Also recorded” adds a separate entry of the source.

Key:
NFAT3-GFP = assay: NFAT-GFP nuclear translocation assay; assay type: cell-based; settings: HeLa cells, 40 nM drug, 2 μM ionomycin
HCoV-NL63 N-protein = assay: Western blot of N protein expression in HCoV-NL63-infected CaCo-2 cells; assay type: cell-based; settings: for N-protein expression at 20 μM: 48 h, 20 μM inhibitor
HCoV-NL63 = HCoV-NL63 replication in Caco-2 cells, qPCR of genome equivalents; assay type: cell-based; settings: Human coronavirus NL63, Caco-2, 48 h, read-out: Inhibition of HCoV-NL63 in CaCo-2 EC50
lymphocyte = lymphocyte proliferation assays, ref Sadeg et al., 1993a, 1993b; cited from earlier work

EC50 (HCoV-NL63) [nM]	Compound	NFAT-GFP nuclear translocation (NFAT3-GFP)	N-protein expression at 20 μM (HCoV-NL63 N-protein)	concentration above which N protein is not detectable any more (HCoV-NL63 N-protein; discussion statement)	concentration at which N protein decreased (HCoV-NL63 N-protein; discussion statement) [µM]	immunosuppressive activity relative to CsA activity (lymphocyte)
800	C/C=C/C[C@@H](C)[C@@H](O)[C@H]1C(=O)N[C@@H](CC)C(=O)N(C)[C@H](C)C(=O)N(CC)[C@@H](C(C)C)C(=O)N[C@@H](C(C)C)C(=O)N(C)[C@@H](CC(C)C)C(=O)N[C@@H](C)C(=O)N[C@H](C)C(=O)N(C)[C@@H](CC(C)C)C(=O)N(C)[C@@H](CC(C)C)C(=O)N(C)[C@@H](C(C)C)C(=O)N1C [ALV, Alisporivir]	allow NFAT-GFP translocation to the nucleus; also recorded: NFAT migrated to the nucleus	not detectable any more	above 5 μM	1.25	
	C/C=C/C[C@@H](C)[C@@H](O)[C@H]1C(=O)N[C@@H](C(C)C)C(=O)N(C)CC(=O)N(C)[C@@H](CC(C)C)C(=O)N[C@@H](C(C)C)C(=O)N(C)[C@@H](CC(C)C)C(=O)N[C@@H](C)C(=O)N[C@H](C)C(=O)N(C)[C@@H](CC(C)C)C(=O)N(C)[C@@H](CC(C)C)C(=O)N(C)[C@@H](C(C)C)C(=O)N1C [CsD]	NFAT is not transferred to the nucleus; also recorded: showed the same behavior as CsA; also recorded: remained in the cytoplasm				about 10%
6600	C=CC[C@@H]1/C=C(\C)C[C@H](C)C[C@H](OC)[C@H]2O[C@@](O)(C(=O)C(=O)N3CCCC[C@H]3C(=O)O[C@H](/C(C)=C/[C@@H]3CC[C@@H](O)[C@H](OC)C3)[C@H](C)[C@@H](O)CC1=O)[C@H](C)C[C@@H]2OC [FK506]	NFAT is not transferred to the nucleus; also recorded: remained in the cytoplasm				
800	C/C=C/C[C@@H](C)[C@@H](O)[C@H]1C(=O)N[C@@H](CC)C(=O)N(C)CC(=O)N(C)[C@@H]([C@@H](C)CC)C(=O)N[C@@H](C(C)C)C(=O)N(C)[C@@H](CC(C)C)C(=O)N[C@@H](C)C(=O)N[C@H](C)C(=O)N(C)[C@@H](CC(C)C)C(=O)N(C)[C@@H](CC(C)C)C(=O)N(C)[C@@H](C(C)C)C(=O)N1C [NIM811]	allow NFAT-GFP translocation to the nucleus; also recorded: NFAT migrated to the nucleus	not detectable any more	above 5 μM		
